From ChEMBL document CHEMBL1926684, “Constituents of Trigonostemon heterophyllus” (J Nat Prod, 2011)

Assays:
HL-60 = experiment: Cytotoxicity against human HL60 cells by MTT assay; assay type: functional, cell-based
A549 = experiment: Cytotoxicity against human A549 cells by SRB assay; assay type: functional, cell-based

Row | Structure (SMILES) | IC50 (HL-60) [µM] | IC50 (A549) [µM]
1 | C=C(C)[C@@]1(OC(C)=O)[C@H](OC(C)=O)[C@@H]2[C@H](OC(C)=O)[C@@]3(C)O[C@@]4([C@@H]3OC(C)=O)[C@@H](OC(=O)c3ccccc3)[C@@H](C)C[C@H]4[C@@]2(O)[C@H](C)[C@@H]1OC(=O)c1ccccc1 [TRIGOHETERIN B] | > 10 | > 10
2 | C=C(C)[C@@]12OC3(C)O[C@@H]1[C@@H]1[C@H](O)[C@@](C)(O)[C@@H](O)[C@@]4(O)[C@@H](C[C@H](C)[C@@H]4OC(C)=O)[C@@]1(O3)[C@H](C)[C@@H]2OC(=O)CCc1ccccc1 (relative stereo) | > 10 | > 10
3 | C=C(C)[C@@]12OC3(c4ccccc4)O[C@@H]1[C@@H]1[C@H]4O[C@@]4(C)[C@@H](O)[C@]4(O)C(=O)[C@@H](C)C[C@H]4[C@@]1(O3)[C@H](C)[C@@H]2OC(=O)c1ccccc1 (relative stereo) | 1.8 | 10
4 | C=C(C)[C@@]1(OC(C)=O)[C@H](OC(C)=O)[C@@H]2[C@H](OC(C)=O)[C@@]3(C)O[C@@]4([C@@H]3OC(C)=O)[C@@H](OC(=O)c3ccccc3)[C@](C)(OC(C)=O)C[C@H]4[C@@]2(O)[C@H](C)[C@@H]1OC(=O)c1ccccc1 (relative stereo) | > 10 | > 10
5 | CC(C)=CC(=O)C(O)/C(C)=C/CC[C@](C)(O)C1CCC(C)=CC1=O (some centres not stated) | > 10 | > 10
6 | C=C(C)[C@@]12OC3(c4ccccc4)O[C@@H]1[C@@H]1[C@H](OC(C)=O)[C@@](C)(O)[C@@H](OC(=O)c4ccccc4)[C@@]4(O)[C@@H](C[C@H](C)[C@@H]4OC(C)=O)[C@@]1(O3)[C@H](C)[C@@H]2OC(C)=O (relative stereo) | > 10 | > 10
